Measured values taken from patent US11926643B2, “Heterocyclic GLP-1 agonists” (Gasherbrum Bio, Inc., priority 2020, dated 2024).
Read-outs that look alike come from different tables or passages of the source.

Biological target: GLP-1 Receptor (Homo sapiens, UniProt P43220)
Test: GLP-1R agonist cAMP stimulation assay (Method 3, HEK293/GLP1R/CRE-LUC, HDB)
Assay type: cell-based
Details: HDB HEK293/CRE-Luc cell line
Protocol: The methodology for detection of cAMP using EFC requires incubation with 20 μL of cAMP XS+ED/CL lysis cocktail for one hour followed by incubation with 20 μL cAMP XS+EA reagent for three hours at room temperature. Microplates are read following signal generation with a PerkinElmer Envision instrument utilizing chemiluminescent signal detection. Compound activity is analyzed using CBIS data analysis suite (ChemInnovation, CA). Percentage activity is calculated using the following formula: % Activity=100%×(mean RLU of test sample−mean RLU of vehicle control)/(mean RLU of MAX control−mean RLU of vehicle control)) Method 3: Activation of GLP-1 receptor is known to stimulate cyclic AMP (cAMP) production in cells which indicates primary coupling to the Gαs subunit of the G protein heterotrimeric complex.
To optimize functional activity directed toward Gαs coupling, a HEK293/CRE-Luc cell line developed by HDB stably expressing the GLP-1 Receptor was used. 200× concentration of compound working solutions were prepared (Agilent Technologies Bravo) with 1/2 log serial dilution in 384-well Echo LDV plate (Labcyte, Cat #LP-0200). 50 nL/well 200× concentration of compound working solutions were moved to 384-well white low volume plate (Greiner, Cat #784075) using Labcyte ECHO550. 1×10^5 cells/mL HEK293/GLP1R/CRE-LUC(HD Biosciences) cell suspensions prepared with assay buffer [DPBS containing 0.5 mM IBMX(Sigma, Cat #15879) and 0.1% BSA(GENVIEW, Cat #FA016-100 g)], 10 μL cell suspensions were added to each well of previous generated assay plate which already contains 50 nL compound at 200× concentration using ThermoFisher Multidrop Combi (1000 cells/well). Seal the plate and incubate at 37° C. with 5% CO2 for 30 min.
After incubation the cAMP assay signal was generated using cAMP dynamic 2 Kit (Cisbio). 5 μL cAMP-d2 working solution was added to each well, followed with 5 μL Anti-cAMP antibody-cryptate working solution added to each well using ThermoFisher Multidrop Combi. Incubate at room temperature for 1 hour protected from light. […] (Method 3)

[1] = read-out: GLP1R cAMP Stimulation DR: EC50 (nM) [Species: Human, Assay Cell Line: HDB]
[2] = read-out: GLP1R cAMP Stimulation DR: pEC50 (M) [Species: Human, Assay Cell Line: HDB] (converted)

GLP-1 Receptor, sequence (P43220 24-463): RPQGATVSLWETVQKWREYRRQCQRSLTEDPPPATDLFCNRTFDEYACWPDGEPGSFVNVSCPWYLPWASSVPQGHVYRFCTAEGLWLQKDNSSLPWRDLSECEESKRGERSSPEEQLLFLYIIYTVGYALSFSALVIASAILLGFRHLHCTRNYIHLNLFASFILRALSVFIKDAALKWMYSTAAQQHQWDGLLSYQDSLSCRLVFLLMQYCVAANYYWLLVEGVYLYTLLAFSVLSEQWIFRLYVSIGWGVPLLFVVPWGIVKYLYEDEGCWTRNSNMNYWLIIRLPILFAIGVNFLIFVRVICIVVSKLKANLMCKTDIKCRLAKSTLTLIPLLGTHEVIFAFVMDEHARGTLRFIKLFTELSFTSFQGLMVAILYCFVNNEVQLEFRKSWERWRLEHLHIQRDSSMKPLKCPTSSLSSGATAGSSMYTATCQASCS

Row | EC50 [1] [nM] | EC50 [2] [nM] | Compound
1 | < 0.1 | ≤ 0.1 | Cc1cc(-n2nc3c(c2-n2ccn(-c4ccc(P(C)(C)=O)cc4)c2=O)[C@H](C)N(C(=O)c2cc4cc(C5CCOC(C)(C)C5)ccc4n2[C@@]2(c4noc(=O)[nH]4)C[C@@H]2C)CC3)cc(C)c1F (stereo partly drawn) [Compound 102a, 3-((1S,2S)-1-(2-((S)-3-(3-(4-(dimethylphosphoryl)phenyl)-2-oxo-2,3-dihydro-1H-imidazol-1-yl)-2-(4-fluoro-3,5-dimethylphenyl)-4-methyl-4,5,6,7-tetrahydro-2H-pyrazolo[4,3-c]pyridine-5-carbonyl)-5-(2,2-dimethyltetrahydro-2H-pyran-4-yl)-1H-indol-1-yl)-2-methylcyclopropyl)-1,2,4-oxadiazol-5 (4H)-one]
2 | < 0.1 | ≤ 0.1 | CCP(=O)(CC)c1ccc(-n2ccn(-c3c4c(nn3-c3cc(C)c(F)c(C)c3)CCN(C(=O)c3cc5cc([C@H]6CCOC(C)(C)C6)ccc5n3[C@@]3(c5noc(=O)[nH]5)C[C@@H]3C)[C@H]4C)c2=O)cc1 [Compound 130b, 3-((1S,2S)-1-(2-((S)-3-(3-(4-(diethylphosphoryl)phenyl)-2-oxo-2,3-dihydro-1H-imidazol-1-yl)-2-(4-fluoro-3,5-dimethylphenyl)-4-methyl-4,5,6,7-tetrahydro-2H-pyrazolo[4,3-c]pyridine-5-carbonyl)-5-((S)-2,2-dimethyltetrahydro-2H-pyran-4-yl)-1H-indol-1-yl)-2-methylcyclopropyl)-1,2,4-oxadiazol-5 (4H)-one]
3 | 0.1 to 0.2 | 0.1 to 1 | CNc1cc(-n2ccn(-c3c4c(nn3-c3cc(C)c(F)c(C)c3)CCN(C(=O)c3cc5cc(C6CCOCC6)ccc5n3[C@@]3(c5noc(=O)[nH]5)C[C@@H]3C)[C@H]4C)c2=O)ccc1P(C)(=O)C(C)(C)C (stereo partly drawn) [Compound 131a, 3-((1S,2S)-1-(2-((4S)-3-(3-(4-(tert-butyl(methyl)phosphoryl)-3-(methylamino)phenyl)-2-oxo-2,3-dihydro-1H-imidazol-1-yl)-2-(4-fluoro-3,5-dimethylphenyl)-4-methyl-4,5,6,7-tetrahydro-2H-pyrazolo[4,3-c]pyridine-5-carbonyl)-5-(tetrahydro-2H-pyran-4-yl)-1H-indol-1-yl)-2-methylcyclopropyl)-1,2,4-oxadiazol-5 (4H)-one]
4 | < 0.1 | ≤ 0.1 | CCP(=O)(CC)c1ccc(-n2ccn(-c3c4c(nn3-c3cc(C)c(F)c(C)c3)CCN(C(=O)c3cc5cc(C6CCOCC6)ccc5n3[C@@]3(c5noc(=O)[nH]5)C[C@@H]3C)[C@H]4C)c2=O)cc1C(F)F [Compound 142a, 3-((1S,2S)-1-(2-((S)-3-(3-(4-(diethylphosphoryl)-3-(difluoromethyl)phenyl)-2-oxo-2,3-dihydro-1H-imidazol-1-yl)-2-(4-fluoro-3,5-dimethylphenyl)-4-methyl-4,5,6,7-tetrahydro-2H-pyrazolo[4,3-c]pyridine-5-carbonyl)-5-(tetrahydro-2H-pyran-4-yl)-1H-indol-1-yl)-2-methylcyclopropyl)-1,2,4-oxadiazol-5 (4H)-one]
5 | 0.1 to 0.2 | 0.1 to 1 | CNc1cc(-n2ccn(-c3c4c(nn3-c3cc(C)c(F)c(C)c3)CCN(C(=O)c3cc5cc(C6CCOCC6)ccc5n3C3(c5noc(=O)[nH]5)CC3)[C@H]4C)c2=O)ccc1P(C)(=O)C(C)(C)C (stereo partly drawn) [Compound 149a, 3-(1-(2-((4S)-3-(3-(4-(tert-butyl(methyl)phosphoryl)-3-(methylamino)phenyl)-2-oxo-2,3-dihydro-1H-imidazol-1-yl)-2-(4-fluoro-3,5-dimethylphenyl)-4-methyl-4,5,6,7-tetrahydro-2H-pyrazolo[4,3-c]pyridine-5-carbonyl)-5-(tetrahydro-2H-pyran-4-yl)-1H-indol-1-yl)cyclopropyl)-1,2,4-oxadiazol-5 (4H)-one]
